Data published in patent US9682047B2, “Augmentation of oncology immunotherapies by pterostilbene containing compositions” (THERAPEUTIC SOLUTIONS INTERNATIONAL, INC., priority 2015, dated 2017).

Assays:
IFN-gamma = experiment: Mitogen (Concanavalin A) induced IFN-gamma production by splenocyte mononuclear cells of treated mice, ELISA; assay type: in vivo; conditions: splenocytes of B16-bearing mice treated as in Example 3, Concanavalin A 5 μg/mL, saline control about 200 ng/mL, FIG. 2
Procedure: FIG. 2 illustrates the stimulation of mitogen induced IFN-gamma production by pterostilbene in mice. Mice were treated as described in FIG. 1 (from left to right: saline; 25 μg/kg pterostilbene; 500 IU/mouse IL-2; and a combination of IL-2 and pterostilbene at the indicated concentrations). Mononuclear cells were obtained and plated in 96-well plates and treated with Concanavalin A at 5 μg/mL. IFN-gamma was assessed by ELISA. The y-axis is expressed as ng/mL.
Mice from Example 3 where euthanized by cervical dislocation and spleens were excised in a sterile manner. Splenocyte mononuclear cells were obtained by hypotonic lysis and washed 3 times in PBS. Mononuclear cells were plated in 96 well plates and treated with Concanavalin A at 5 μg/mL. Interferon gamma was assessed by ELISA and expressed as ng/mL. […] In contrast, mononuclear cells of mice treated with pterostilbene alone expressed about 900 ng/mL IFN-gamma, and mononuclear cells of mice treated with the combination of pterostilbene and IL-2 expressed about 1500 ng/mL IFN-gamma. As disclosed herein, enhanced expression of IFN-gamma elicits an immune response.

[1] = in vivo; cited from earlier work
[2] = cited from earlier work
[3] = in vivo; cited from earlier work; remark: listed apart in the source

Structure (SMILES)	IFN-gamma expressed by mononuclear cells (IFN-gamma)	half-life [1]	solubility in aqueous solution [2]	systemic bioavailability [3]
COc1cc(/C=C/c2ccc(O)cc2)cc(OC)c1 [pterostilbene, trans-3,5-dimethoxy-4′-hydroxy-trans-stilbene]	about 900 ng/mL	approximately 2 hr	sparingly soluble	
Oc1ccc(/C=C/c2cc(O)cc(O)c2)cc1 [t-RESV, trans-3,5,4′-trihydroxystilbene]				low
